Earlier results, collected in US20060165637A1, “Topical agent containing phytanic acid or a derivative thereof” (priority 2003, published 2006).

Experiments:
RXR = conditions: relative to retinoic acid
[1] = applied topically to the skin

| Structure (SMILES) | RXR binding affinity, times weaker than that of retinoic acid (RXR) [times] | conversion into phytanic acid [1] |
| --- | --- | --- |
| CC(C)CCCC(C)CCCC(C)CCCC(C)CC(=O)O (centres unmarked) [Phytanic acid, 3,7,11,15-tetramethylhexadecanoic acid] | 200 |  |
| C/C(=C\CO)CCC[C@H](C)CCC[C@H](C)CCCC(C)C [phytol] |  | does not occur |
